Here are results for ten molecules from PMC7054763, “Sulfonamide-Based Azaheterocyclic Schiff Base Derivatives as Potential Carbonic Anhydrase Inhibitors: Synthesis, Cytotoxicity, and Enzyme Inhibitory Kinetics” (BioMed Research International, 2020).

Data set [1] concerns the target T1, carbonic anhydrase (Bos taurus, UniProt P00921).
T1 construct: purchased Sigma-Aldrich
The experiment in a line: Carbonic anhydrase (CA) assay. It counts as biochemical. The following applies: bovine enzyme, p-nitrophenyl acetate substrate, pH 7.6, 25°C; for IC50: read-out: Carbonic anhydrase IC50 ± SEM.

Data set [2] deals with T1, carbonic anhydrase. The data set is described as follows: Kinetic analysis (Lineweaver-Burk) of carbonic anhydrase inhibition. The class given is biochemical, bovine. As to the method: CA inhibition has been determined using some reported methods with a few modifications. […] In brief, 120 microliters of 50 mM Tris-Sulfate buffer (with a pH 7.6 comprising 0.1 mM ZnCl2), twenty μL of (50 U) bovine enzyme, and 20 μL of inhibitor per well makes the reaction mixture. Mixture contents were mixed well before preincubation for ten minutes at 25°C. Para-nitrophenyl acetate substrate (6 mM stock solution by using <5% acetonitrile present in buffer and has been used fresh each time) and forty microliters were taken I each well to reach 0.6 mM concentration per well. The volume of the reaction mixture was diluted to 200 μL. Contents were well mixed after thirty-minute incubation at 25°C, and absorbance results were determined at 348 nm with a microplate reader (SpectraMax ABS, USA). Standard used was acetazolamide. Experiments were performed in triplicate with each concentration. GraphPad Prism 5.0 (GraphPad, San Diego, CA, USA) has been used to calculate IC50 by nonlinear regression. Inhibition (%) = [(B − S)/B] × 100, where S and B are the absorbances of the samples and blank.
To determine the kinetic parameters of compound 3c, a sequence of experiments have been done. Compound 3c was selected on the basis of IC50 value which was used at different concentrations (0.0, 7.1, 14.2, and 28.4 μM, respectively); the substrate (p-nitrophenyl acetate) concentrations were varied (2, 1, 0.5, 0.25, 0.125, and 0.0625 mM). Other all experimental conditions were just similar as described in the carbonic anhydrase assay segment. The maximum initial velocity has been measured using the starting linear part of absorbance values up to ten minutes at a 1-minute interval. Plots of Lineweaver–Burk on graph between inverse of velocities (1/V) and inverse of concentration of substrate 1/[S] mM^−1 were used in order to find enzyme inhibition type. EI dissociation constant Ki was found by the secondary plot of concentrations of inhibitors versus 1/V.

The subject of data set [3] is MCF-7 cells. The data set is described as follows: Cell viability assay (MTT) using MCF-7. The class given is cell-based, human. Conditions: MCF-7, 24 h, 0, 125 and 250 μM. How it is done:
(§1) The experiment for cell viability studies using MTT (3-(4,5-dimethylthiazol-2yl)-2,5-diphenyltetrazolium bromide) setup has been done to find cytotoxic effects of target compounds. The human keratinocyte (HaCaT) and MCF-7 were cultivated separately in 96-well plates (CGP, gamma sterilized, SPL Korea) with use of complete DMEM consisting of ten percent fetal bovine serum and one percent antibiotics. 5∗10^4 cells per well were incubated for 24 hours before their exposure to a series of dilutions of target derivatives. The analogue 3c was solubilized in DMSO, and DMEM was used for dilution to achieve final concentrations 0, 125, and 250 μM. Then, in the presence of test compounds, cells were incubated again for twenty-four hours at 37 C with 5% carbon dioxide. Now, through the MTT setup, absorbance values at 570 nm were determined by ELISA reader and each experiment was repeated thrice. All data was shown in a mean ± standard deviation pattern, and Student's t-tests were performed to analyze significance of the data. Statistical significance has been assumed (p < 0.005).

Data set [4] relates to human keratinocyte (HaCaT) cells. The data set is described as follows: Cell viability assay (MTT) using HaCaT. It counts as cell-based. How it is done:
as §1

Entries after “also recorded” stand apart in the source; their conditions may differ.

T1 sequence (P00921 whole entry): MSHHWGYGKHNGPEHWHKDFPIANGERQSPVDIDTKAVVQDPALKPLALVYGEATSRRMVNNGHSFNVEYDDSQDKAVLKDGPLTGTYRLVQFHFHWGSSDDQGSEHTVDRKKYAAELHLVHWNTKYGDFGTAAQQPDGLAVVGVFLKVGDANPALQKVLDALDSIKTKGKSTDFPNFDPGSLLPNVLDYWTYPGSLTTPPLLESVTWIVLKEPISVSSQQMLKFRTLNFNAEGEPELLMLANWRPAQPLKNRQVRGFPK

As a reminder, the melting point is the temperature, or range, at which the solid turns liquid. The molecule `O=S(=O)(N/N=C/c1cccnc1)c1ccccc1` [Compound 3a, (E)-N′-(pyridin-3-ylmethylene)benzenesulfonohydrazide] gave a melting point of 176 to 178 °C. For the same molecule, the “Carbonic anhydrase IC50 ± SEM” value in data set [1] is given as “No inhibition”.
On the same counts, the results for `Cc1ccc(S(=O)(=O)N/N=C/c2ccc[nH]2)cc1` [Compound 3i, (E)-N′-((1H-pyrrol-2-yl)methylene)-4-methylbenzenesulfonohydrazide] are 146 to 148 °C and “No inhibition”.
Take `CC(=O)Nc1ccc(S(=O)(=O)N/N=C/c2cccnc2)cc1` [Compound 3d, (E)-N-(4-((2-(pyridin-3-ylmethylene)hydrazinyl)sulfonyl)phenyl)acetamide]: the melting point was 181 to 184 °C. The “Carbonic anhydrase IC50 ± SEM” value in data set [1] is recorded as “No inhibition”.
In general, IC50 refers to the concentration that inhibits the measured activity by half. In turn, `Cc1ccc(S(=O)(=O)N/N=C/c2ccccn2)cc1` [Compound 3g, (E)-4-methyl-N′-(pyridin-2-ylmethylene)benzenesulfonohydrazide] registered a melting point of 159 to 161 °C. Also, the IC50 in data set [1] is 59.1 ± 1.68 µM.
On the same counts, the results for `O=S(=O)(N/N=C/c1ccc[nH]1)c1ccccc1` [Compound 3h, (E)-N′-((1H-pyrrol-2-yl)methylene)benzenesulfonohydrazide] are 156 to 158 °C and 31.8 ± 1.07 µM.
`COc1ccc(S(=O)(=O)N/N=C/c2cc[nH]c2)cc1` [Compound 3j, (E)-N′-((1H-pyrrol-3-yl)methylene)-4-methoxybenzenesulfonohydrazide]: the melting point lay within 176 to 179 °C. Moreover, in data set [1], the “Carbonic anhydrase IC50 ± SEM” value is “No inhibition”.
On the same counts, the results for `Cc1cc(C)c(S(=O)(=O)N/N=C/c2cccnc2)c(C)c1` [Compound 3b, (E)-2,4,6-trimethyl-N′-(pyridin-3-ylmethylene)benzenesulfonohydrazide] are 173 to 176 °C and “No inhibition”.
For orientation: Ki means the dissociation constant of the complex between target and ligand, obtained from inhibition or displacement. `Cc1ccc(S(=O)(=O)N/N=C/c2cccnc2)cc1` [Compound 3c, (E)-4-methyl-N′-(pyridin-3-ylmethylene)benzenesulfonohydrazide] returned a melting point of 168 to 171 °C. In addition, the IC50 in data set [1] turned out to be 0.84 ± 0.12 µM. For the same molecule, in data set [2] (3c 7.1 μM), the Vmax was 0.01006 ΔA/min. The Vmax in data set [2] (3c 14.2 μM) is listed as 0.004552 ΔA/min. The Vmax in data set [2] (3c 28.4 μM) is listed as 0.002293 ΔA/min. Moreover, in data set [2] (Lineweaver-Burk plots), the Inhibition type result is listed as “noncompetitive mode of inhibition; also recorded: noncompetitively”. For the same molecule, the Ki in data set [2] (secondary plot of Lineweaver-Burk slope versus 3c concentration, read-out: Ki (EI dissociation constant)) was found to be 8.6 µM. Further, the “Cytotoxicity (cell viability)” value in data set [3] is reported as “caused cytotoxicity in a concentration-dependent manner”. Also, the “Cytotoxic effects, HaCaT compared with MCF-7” value in data set [4] (HaCaT versus MCF-7, 250 μM) is reported as “smaller in case of human keratinocyte (HaCaT) at concentration 250 μM than MCF-7; also recorded: less cytotoxic effects on human keratinocyte cell lines (HaCaT) compared to breast cancer cell lines MCF-7”. Further, in data set [4] (HaCaT, 24 h, 0, 125 and 250 μM), the “Cytotoxicity (cell viability)” value is recorded as “caused cytotoxicity in a concentration-dependent manner”.
As for `Cc1cc(C)c(S(=O)(=O)N/N=C/c2ccncc2)c(C)c1` [Compound 3e, (E)-2,4,6-trimethyl-N′-(pyridin-4-ylmethylene)benzenesulfonohydrazide], the melting point was 160 to 164 °C. Further, the IC50 in data set [1] turned out to be 18.9 ± 0.85 µM.
On to `Cc1ccc(S(=O)(=O)N/N=C/c2ccncc2)cc1` [Compound 3f, (E)-4-methyl-N′-(pyridin-4-ylmethylene)benzenesulfonohydrazide], for which the melting point is 148 to 152 °C. Further, the “Carbonic anhydrase IC50 ± SEM” value in data set [1] is listed as “No inhibition”.
